Legend:
[1] = target: Serine/threonine-protein kinase PLK2 (Homo sapiens, UniProt Q9NYY3); assay: Selectivity interaction (KinomeScan (DiscoverX)) EUB0000666a PLK2; settings: at 10 µM
[2] = target: T1, Histone-arginine methyltransferase CARM1 (Homo sapiens) (UniProt Q86X55); settings: MM.1R, at 3 µM
T1 sequence (whole entry): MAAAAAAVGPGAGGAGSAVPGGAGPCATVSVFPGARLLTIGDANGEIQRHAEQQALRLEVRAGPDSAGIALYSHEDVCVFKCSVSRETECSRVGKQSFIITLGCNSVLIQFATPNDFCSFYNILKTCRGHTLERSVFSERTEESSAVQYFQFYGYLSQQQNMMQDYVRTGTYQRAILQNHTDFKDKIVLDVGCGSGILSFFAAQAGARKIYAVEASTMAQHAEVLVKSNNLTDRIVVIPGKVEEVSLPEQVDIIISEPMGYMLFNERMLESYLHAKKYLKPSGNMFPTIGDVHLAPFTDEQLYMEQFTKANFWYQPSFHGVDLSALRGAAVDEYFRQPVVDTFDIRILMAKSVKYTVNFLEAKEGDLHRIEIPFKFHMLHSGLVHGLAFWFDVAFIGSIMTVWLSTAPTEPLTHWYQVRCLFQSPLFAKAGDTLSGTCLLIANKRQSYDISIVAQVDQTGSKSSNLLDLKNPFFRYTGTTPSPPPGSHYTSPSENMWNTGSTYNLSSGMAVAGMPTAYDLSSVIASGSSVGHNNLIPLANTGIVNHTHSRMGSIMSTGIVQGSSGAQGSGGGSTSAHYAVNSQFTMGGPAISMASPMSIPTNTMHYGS

[3] = Selectivity interaction (RapidFire MS assay (using full-length mouse protein MGAT2)) EUB0001079a MGAT2
[4] = target: Casein kinase I isoform gamma-1 (Homo sapiens) (UniProt Q9HCP0); assay: Selectivity interaction (KinomeScan (DiscoverX)) EUB0001079a CSNK1G1; settings: at 1 µM
[5] = target: Bromodomain-containing protein 3 (Homo sapiens) (UniProt Q15059); assay: Selectivity interaction (Bromodomain panel (DSF asssay)) EUB0000270b BRD3
[6] = target: Serine/threonine-protein kinase PAK 2 (Homo sapiens) (UniProt Q13177); assay: Selectivity interaction (Kinase panel (Invitrogen)) EUB0000639a PAK2; settings: at 200 nM
[7] = target: MAP/microtubule affinity-regulating kinase 3 (Homo sapiens) (UniProt P27448); assay: Selectivity interaction (KinomeScan (DiscoverX)) EUB0000595a MARK3; settings: at 10 µM
[8] = target: Wee1-like protein kinase 2 (Homo sapiens) (UniProt P0C1S8); assay: Selectivity interaction (Ambit KINOMEscan and KiNATiv profiling in Jurkat cells) EUB0000090b WEE2; format: cell-based; settings: at 1 µM
[9] = target: T2, Mitogen-activated protein kinase kinase kinase 2 (Homo sapiens) (UniProt Q9Y2U5); assay: Selectivity interaction (KinomeScan (DiscoverX)) EUB0000045b MAP3K2
T2 sequence (whole entry): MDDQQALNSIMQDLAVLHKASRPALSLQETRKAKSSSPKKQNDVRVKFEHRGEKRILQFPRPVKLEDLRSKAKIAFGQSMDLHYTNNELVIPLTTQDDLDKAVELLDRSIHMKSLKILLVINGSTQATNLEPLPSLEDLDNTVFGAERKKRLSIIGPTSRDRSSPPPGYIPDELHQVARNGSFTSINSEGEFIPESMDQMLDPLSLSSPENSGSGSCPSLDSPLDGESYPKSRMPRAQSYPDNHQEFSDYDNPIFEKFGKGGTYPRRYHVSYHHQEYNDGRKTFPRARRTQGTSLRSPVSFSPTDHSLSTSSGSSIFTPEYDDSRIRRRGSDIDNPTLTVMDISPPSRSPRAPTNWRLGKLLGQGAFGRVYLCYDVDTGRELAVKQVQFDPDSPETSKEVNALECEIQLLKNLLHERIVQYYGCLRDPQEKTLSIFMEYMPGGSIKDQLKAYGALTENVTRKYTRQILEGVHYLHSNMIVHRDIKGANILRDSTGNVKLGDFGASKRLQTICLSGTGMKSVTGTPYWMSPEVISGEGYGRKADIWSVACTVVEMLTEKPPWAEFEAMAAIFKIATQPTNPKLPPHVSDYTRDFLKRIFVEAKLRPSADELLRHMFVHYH

[10] = target: cAMP-dependent protein kinase catalytic subunit alpha (Homo sapiens, UniProt P17612); settings: at 10 µM
[11] = target: Serine/threonine-protein kinase SIK3 (Homo sapiens) (UniProt Q9Y2K2); assay: Selectivity interaction (KinomeScan (DiscoverX)) EUB0001619a SIK3; settings: at 1 µM
[12] = target: Receptor-interacting serine/threonine-protein kinase 2 (Homo sapiens, UniProt O43353); assay: Selectivity interaction (KinomeScan (DiscoverX)) EUB0001619a RIPK2; settings: at 1 µM
[13] = target: Serine/threonine-protein kinase PLK3 (Homo sapiens, UniProt Q9H4B4); assay: Selectivity interaction (KinomeScan (DiscoverX)) EUB0001619a PLK3; settings: at 1 µM
[14] = target: T3, cGMP-dependent protein kinase 2 (Homo sapiens) (UniProt Q13237); assay: Selectivity interaction (Upstate Kinase Profiler service (Millipore)) EUB0000056c PRKG2; settings: at 1 µM
T3 sequence (whole entry): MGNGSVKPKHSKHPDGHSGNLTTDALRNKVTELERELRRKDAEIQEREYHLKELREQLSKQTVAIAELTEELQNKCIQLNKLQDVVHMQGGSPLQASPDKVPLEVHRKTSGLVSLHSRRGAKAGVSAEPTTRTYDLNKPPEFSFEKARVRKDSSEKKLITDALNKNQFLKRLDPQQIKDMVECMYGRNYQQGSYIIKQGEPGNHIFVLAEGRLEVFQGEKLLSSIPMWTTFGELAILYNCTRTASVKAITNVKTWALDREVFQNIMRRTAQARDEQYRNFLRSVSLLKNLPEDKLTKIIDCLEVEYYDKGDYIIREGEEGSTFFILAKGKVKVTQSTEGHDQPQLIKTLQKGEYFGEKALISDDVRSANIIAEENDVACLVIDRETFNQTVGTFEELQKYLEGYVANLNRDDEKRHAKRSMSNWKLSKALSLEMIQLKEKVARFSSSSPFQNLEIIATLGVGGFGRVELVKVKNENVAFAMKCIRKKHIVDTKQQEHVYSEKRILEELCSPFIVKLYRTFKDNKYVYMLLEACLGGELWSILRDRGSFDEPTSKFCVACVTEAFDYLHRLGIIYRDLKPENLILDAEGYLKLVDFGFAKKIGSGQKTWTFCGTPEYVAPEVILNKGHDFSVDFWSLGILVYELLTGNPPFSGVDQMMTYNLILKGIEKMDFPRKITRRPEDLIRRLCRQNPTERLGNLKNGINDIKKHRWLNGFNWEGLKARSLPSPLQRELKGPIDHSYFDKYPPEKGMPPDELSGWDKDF

Aurora kinase B = Aurora kinase B (Homo sapiens, UniProt Q96GD4); assay: Selectivity interaction (KinomeScan (DiscoverX)) EUB0000607a AURKB; settings: at 10 µM

MAP/microtubule affinity-regulating kinase 3 (Homo sapiens), sequence (P27448 whole entry, looked up): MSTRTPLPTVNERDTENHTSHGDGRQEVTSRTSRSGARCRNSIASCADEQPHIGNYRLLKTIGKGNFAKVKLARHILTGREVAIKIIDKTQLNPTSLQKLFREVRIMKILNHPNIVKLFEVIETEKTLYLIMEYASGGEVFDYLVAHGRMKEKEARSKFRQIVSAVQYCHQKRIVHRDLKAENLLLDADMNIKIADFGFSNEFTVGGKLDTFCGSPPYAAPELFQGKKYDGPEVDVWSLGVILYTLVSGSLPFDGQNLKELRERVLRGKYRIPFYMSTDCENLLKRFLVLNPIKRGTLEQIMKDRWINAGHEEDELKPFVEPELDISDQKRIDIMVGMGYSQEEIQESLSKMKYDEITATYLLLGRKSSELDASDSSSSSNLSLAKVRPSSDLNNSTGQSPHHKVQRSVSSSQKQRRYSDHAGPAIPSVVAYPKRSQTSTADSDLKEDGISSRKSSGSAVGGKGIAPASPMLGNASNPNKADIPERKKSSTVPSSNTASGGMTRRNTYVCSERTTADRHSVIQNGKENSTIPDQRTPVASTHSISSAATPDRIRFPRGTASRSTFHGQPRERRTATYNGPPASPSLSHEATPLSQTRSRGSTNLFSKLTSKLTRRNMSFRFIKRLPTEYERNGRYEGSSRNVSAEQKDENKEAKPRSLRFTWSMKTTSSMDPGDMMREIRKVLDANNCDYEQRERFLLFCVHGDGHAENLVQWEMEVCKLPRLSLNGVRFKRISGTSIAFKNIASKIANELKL
Serine/threonine-protein kinase SIK3 (Homo sapiens), sequence (Q9Y2K2 whole entry, looked up): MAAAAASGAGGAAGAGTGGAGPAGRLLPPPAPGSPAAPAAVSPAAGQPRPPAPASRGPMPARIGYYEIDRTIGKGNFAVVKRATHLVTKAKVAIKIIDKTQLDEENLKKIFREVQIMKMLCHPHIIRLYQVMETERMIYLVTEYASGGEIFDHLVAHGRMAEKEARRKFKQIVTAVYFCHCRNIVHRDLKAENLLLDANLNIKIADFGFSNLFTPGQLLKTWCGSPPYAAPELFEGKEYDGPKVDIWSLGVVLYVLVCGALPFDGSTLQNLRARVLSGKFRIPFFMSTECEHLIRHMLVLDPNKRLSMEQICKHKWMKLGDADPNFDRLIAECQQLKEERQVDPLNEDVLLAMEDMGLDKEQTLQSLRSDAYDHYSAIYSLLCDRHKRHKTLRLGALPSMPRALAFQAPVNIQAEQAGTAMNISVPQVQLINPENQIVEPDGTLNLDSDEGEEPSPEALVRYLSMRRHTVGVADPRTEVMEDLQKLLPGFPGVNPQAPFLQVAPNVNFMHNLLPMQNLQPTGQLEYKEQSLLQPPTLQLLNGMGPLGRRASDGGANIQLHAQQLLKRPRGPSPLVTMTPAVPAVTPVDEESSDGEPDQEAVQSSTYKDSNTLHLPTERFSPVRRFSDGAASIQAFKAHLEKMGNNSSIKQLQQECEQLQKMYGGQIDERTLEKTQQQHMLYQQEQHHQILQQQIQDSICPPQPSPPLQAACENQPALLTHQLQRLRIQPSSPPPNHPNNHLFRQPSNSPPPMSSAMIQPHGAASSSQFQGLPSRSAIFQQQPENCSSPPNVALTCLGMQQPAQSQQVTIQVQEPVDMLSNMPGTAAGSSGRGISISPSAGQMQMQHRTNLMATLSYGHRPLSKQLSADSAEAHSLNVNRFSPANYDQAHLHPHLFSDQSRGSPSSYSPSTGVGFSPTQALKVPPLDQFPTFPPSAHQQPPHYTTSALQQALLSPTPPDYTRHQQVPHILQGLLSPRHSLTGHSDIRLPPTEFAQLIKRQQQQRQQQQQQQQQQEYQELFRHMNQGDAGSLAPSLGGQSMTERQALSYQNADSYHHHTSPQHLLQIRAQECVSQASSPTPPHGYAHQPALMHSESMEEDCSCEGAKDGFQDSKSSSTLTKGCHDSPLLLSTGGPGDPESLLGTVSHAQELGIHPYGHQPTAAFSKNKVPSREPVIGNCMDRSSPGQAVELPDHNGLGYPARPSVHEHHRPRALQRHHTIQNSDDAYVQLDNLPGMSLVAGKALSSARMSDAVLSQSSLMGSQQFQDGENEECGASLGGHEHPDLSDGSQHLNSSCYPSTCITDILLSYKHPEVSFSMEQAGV
Wee1-like protein kinase 2 (Homo sapiens), sequence (P0C1S8 whole entry, looked up): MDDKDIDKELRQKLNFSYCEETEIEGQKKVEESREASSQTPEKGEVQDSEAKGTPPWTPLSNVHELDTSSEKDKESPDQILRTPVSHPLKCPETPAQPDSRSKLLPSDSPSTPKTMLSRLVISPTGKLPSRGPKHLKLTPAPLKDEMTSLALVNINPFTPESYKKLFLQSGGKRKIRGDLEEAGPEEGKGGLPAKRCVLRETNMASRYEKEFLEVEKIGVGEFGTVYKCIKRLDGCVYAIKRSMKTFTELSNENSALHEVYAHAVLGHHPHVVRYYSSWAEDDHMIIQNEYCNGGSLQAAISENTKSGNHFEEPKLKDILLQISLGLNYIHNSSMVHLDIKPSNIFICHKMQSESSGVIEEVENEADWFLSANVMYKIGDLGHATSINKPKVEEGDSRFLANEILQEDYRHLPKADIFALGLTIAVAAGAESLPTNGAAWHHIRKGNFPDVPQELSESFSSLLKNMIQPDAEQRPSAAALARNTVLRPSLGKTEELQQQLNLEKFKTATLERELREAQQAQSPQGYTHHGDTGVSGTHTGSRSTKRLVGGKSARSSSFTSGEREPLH
Receptor-interacting serine/threonine-protein kinase 2, sequence (O43353 whole entry): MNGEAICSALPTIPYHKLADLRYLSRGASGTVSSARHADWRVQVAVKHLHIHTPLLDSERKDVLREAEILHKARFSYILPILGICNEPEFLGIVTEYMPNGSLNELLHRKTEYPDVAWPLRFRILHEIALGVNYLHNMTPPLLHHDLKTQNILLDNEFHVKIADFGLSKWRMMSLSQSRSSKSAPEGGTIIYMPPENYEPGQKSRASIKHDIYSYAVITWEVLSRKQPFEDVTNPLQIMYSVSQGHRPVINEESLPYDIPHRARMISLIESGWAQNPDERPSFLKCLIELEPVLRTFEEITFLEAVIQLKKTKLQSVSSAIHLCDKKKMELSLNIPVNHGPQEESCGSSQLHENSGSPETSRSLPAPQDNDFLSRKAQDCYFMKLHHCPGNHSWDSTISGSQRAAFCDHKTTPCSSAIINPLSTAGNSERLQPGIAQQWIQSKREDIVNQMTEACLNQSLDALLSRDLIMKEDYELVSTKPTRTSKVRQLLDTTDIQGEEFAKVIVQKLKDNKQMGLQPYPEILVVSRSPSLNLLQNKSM
Casein kinase I isoform gamma-1 (Homo sapiens), sequence (Q9HCP0 whole entry, looked up, canonical isoform): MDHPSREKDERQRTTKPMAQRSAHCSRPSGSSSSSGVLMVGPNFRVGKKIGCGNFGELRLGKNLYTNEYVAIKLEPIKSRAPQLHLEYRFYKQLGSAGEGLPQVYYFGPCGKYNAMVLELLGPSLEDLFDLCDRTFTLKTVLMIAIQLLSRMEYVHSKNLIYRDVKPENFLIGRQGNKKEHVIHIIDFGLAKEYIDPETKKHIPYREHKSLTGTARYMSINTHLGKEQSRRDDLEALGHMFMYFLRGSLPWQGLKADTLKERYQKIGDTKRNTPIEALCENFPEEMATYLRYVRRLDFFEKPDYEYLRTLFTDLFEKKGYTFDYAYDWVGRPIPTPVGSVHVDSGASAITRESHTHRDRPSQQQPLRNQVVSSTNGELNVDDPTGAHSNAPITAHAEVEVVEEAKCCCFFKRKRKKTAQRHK
Serine/threonine-protein kinase PLK2, sequence (Q9NYY3 whole entry, looked up): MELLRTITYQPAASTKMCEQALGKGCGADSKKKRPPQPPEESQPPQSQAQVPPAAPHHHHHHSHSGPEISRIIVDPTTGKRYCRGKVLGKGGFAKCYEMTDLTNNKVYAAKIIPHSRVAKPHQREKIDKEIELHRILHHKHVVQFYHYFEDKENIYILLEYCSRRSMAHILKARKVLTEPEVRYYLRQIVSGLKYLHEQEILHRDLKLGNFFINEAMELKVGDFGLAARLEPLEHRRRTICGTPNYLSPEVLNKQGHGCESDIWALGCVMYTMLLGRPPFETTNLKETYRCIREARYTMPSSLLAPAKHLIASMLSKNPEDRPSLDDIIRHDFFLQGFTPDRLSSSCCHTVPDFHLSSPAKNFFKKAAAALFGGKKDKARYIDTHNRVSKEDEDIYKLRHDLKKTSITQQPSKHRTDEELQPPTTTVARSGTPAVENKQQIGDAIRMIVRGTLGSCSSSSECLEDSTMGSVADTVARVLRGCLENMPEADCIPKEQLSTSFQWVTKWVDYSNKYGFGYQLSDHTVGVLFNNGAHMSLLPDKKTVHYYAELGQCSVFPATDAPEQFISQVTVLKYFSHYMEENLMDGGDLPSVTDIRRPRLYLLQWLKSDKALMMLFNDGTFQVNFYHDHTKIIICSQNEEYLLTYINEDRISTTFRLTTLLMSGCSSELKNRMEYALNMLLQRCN
Bromodomain-containing protein 3 (Homo sapiens), sequence (Q15059 2-726 limits assumed): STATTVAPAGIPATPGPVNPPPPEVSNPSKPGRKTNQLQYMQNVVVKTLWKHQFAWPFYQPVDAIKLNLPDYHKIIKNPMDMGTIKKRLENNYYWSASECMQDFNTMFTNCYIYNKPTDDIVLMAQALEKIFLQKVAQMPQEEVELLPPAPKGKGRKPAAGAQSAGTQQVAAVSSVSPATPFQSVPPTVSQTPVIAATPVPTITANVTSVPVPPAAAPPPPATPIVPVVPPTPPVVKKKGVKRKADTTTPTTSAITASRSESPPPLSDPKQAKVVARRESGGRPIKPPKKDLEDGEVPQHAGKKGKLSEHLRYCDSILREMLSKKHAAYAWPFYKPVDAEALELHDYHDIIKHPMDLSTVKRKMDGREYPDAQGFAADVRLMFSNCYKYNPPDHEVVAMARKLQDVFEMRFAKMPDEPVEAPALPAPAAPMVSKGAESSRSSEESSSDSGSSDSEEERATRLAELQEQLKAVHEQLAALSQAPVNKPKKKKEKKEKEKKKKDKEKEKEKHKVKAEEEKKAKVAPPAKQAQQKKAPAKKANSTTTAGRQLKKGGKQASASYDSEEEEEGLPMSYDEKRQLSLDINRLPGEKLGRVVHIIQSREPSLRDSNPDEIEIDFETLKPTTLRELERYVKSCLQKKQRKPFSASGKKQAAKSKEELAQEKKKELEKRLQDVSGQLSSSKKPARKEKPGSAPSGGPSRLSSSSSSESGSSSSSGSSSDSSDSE

O=C(NOC[C@H](O)CO)c1ccc(F)c(F)c1Nc1ccc(I)cc1F
% of control [1]: 100%

CNCCN1CCC(c2cc(CN(C)C(=O)c3cccc(Oc4ccccc4)c3)ccn2)CC1
% of growth rate [2]: -37.8%

Nc1cnc(N2CCc3cc(S(=O)(=O)Nc4c(F)cc(Cl)cc4F)cc(N4CCCC4=O)c32)nc1 [TP-020n]
IC50 [3]: 530 nM | % of control [4]: 97%

Cc1cc(CN)cc(C)c1-c1ncn(C)c1-c1cncn1C
dTM [5]: -3.97 K

CC[C@@H]1[C@H](F)C(=O)N[C@@H]1COc1nccc2cc(C(N)=O)c(OC)cc12 [ZIMLOVISERTIB]
% of inhibition [6]: 3.6%

COCC(=O)NC/C=C/c1ccc2ncnc(Nc3ccc(Oc4ccc(C)nc4)c(C)c3)c2c1 [CP-724714]
% of control [7]: 100%

CN(C)C/C=C/C(=O)Nc1ccc(C(=O)N2CCCC(Nc3ncc(Cl)c(-c4c[nH]c5ccccc45)n3)C2)cc1 (stereo unspecified)
% of control [8]: 97%

C=CC(=O)Nc1cc(-n2c(=O)ccc3cnc4ccc(-c5ccc(NS(C)(=O)=O)cc5)cc4c32)ccc1C
% of control ([9]; at 1 µM): 100% | % of control ([9]; at 10 µM): 100%

Cc1cc([C@@H](C)Nc2ccccc2C(=O)O)c2nc(N3CCOCC3)cc(=O)n2c1 [AZD-6482]
% of control [10]: 100%

N#Cc1cccc(-c2c[nH]c3ncnc(N4CCOCC4)c23)c1
% of control [11]: 100% | % of control [12]: 84% | % of control [13]: 100%

Cc1ccc(-c2ccc3c(ccc4sc5c(c43)NC[C@@H](C)NC5=O)n2)cn1
% of inhibition [14]: -6%

CNC(=O)Nc1ccc(-c2nc(N3CC4CCC(C3)O4)c3cnn(C4CCC5(CC4)OCCO5)c3n2)cc1
% of control (Aurora kinase B): 92%

Source: ChEMBL document CHEMBL5465560, “Selectivity Literature for EUbOPEN Chemogenomic Library” (2024)
